Assay results reported in patent US8513280B2, “Use of epothilones in the treatment of neuronal connectivity defects such as schizophrenia and autism” (Institut National de la Sante et de la Recherche Medicale, priority 2004, dated 2013).
Several values for one entry are separate records, joined by “and”; a condition that tells them apart may be missing. Identical values can stand only once.

How the values were obtained:
Format in all cases: in vivo, mouse
STOP deficient mice [1] = assay: Spontaneous activity, video-recorded during 3 h, STOP KO mice
Procedure: (§1) Spontaneous activity (male and female) was recorded and quantified during a three hours period of time, as in Andrieux et al., Genes Dev. 2002 Sep. 15; 16(18):2350-64. Five activities were considered: feeding, remaining still without sleeping, walking, grooming and sleeping. For each activity, the total time spent doing the activity and the number of distinct sequences of activity, were determined.
(§2) In a first series of experiments, epothilone D was injected intra-peritoneally, once a week, at either 0.3 mg/kg/week or 3 mg/kg/week for at least 8 weeks. The drug was diluted at a final concentration of 0.3 mg/ml in water, from a 50 mg/ml stock solution in DMSO.
(§3) In a second series of experiments, epothilone D was injected intra-peritoneally, in two injections a week, at a total dose of 4 mg/kg/week, for 8 weeks. The drug was diluted at a final concentration of 0.2 mg/ml in water, from a 50 mg/ml stock solution in DMSO.
(§4) Among 61 STOP KO mice, 28 were treated with placebo injections, 33 with 3 mg/kg/week of epothilone D. Among 62 WT mice, 29 were treated with placebo injections, 33 with 3 mg/kg/week of epothilone D.
(§5) In another series of experiments, among 19 STOP KO mice, 9 were treated with placebo injections, 10 with 4 mg/kg/week epothilone D. Among 20 WT mice, 10 were treated with placebo injections and 10 with 4 mg/kg/week epothilone D.

WT mice [2] = assay: Spontaneous activity, video-recorded during 3 h, WT mice
Procedure: as §1, §2, §3, §4, §5

STOP deficient mice [3] = assay: Maternal behaviour: nest building and pup retrieving, STOP KO mice
Procedure: (§6) For maternal behaviour, STOP deficient or control wild type (WT) female mice, nulliparous, 8 weeks old, were treated either with a placebo (carrier alone), or with epothilone D.
(§7) The maternal behaviour of treated and untreated mice was monitored by assaying the mouse ability to build a nest and to retrieve pups
(§8) For assessment of nesting capacity, the tested mouse was placed in a 240×240×120 mm cage containing litter and provided with a Kleenex tissue folded in 4 (final dimensions, 100×100 mm). After 60 hours, the mouse ability to use the paper and to build a nest was scored as follows:
(§9) Tissue use score: 0, the Kleenex tissue remained folded; 1, the tissue has been unfolded but not shredded; 2 the tissue was shredded.
(§10) Nest building score: 0, no attempt to build a nest; 1, primitive flat nest of uncontrolled shape; 2, true nest, the paper is mixed with litter to form a circular nest, less than 80 mm in diameter.
(§11) For assessment of retrieving: following the nest building test, mice were trained and assessed for pup retrieving as in Andrieux et al. (Genes Dev. 2002 Sep. 15; 16(18):2350-64. Retrieving was scored as the number of pups retrieved (0 to 3).
Finally a global score for nesting and retrieving capacity (TNR) was determined for each mouse, by adding the tissue use, nest building, and pup retrieving scores (maximal score for TNR is 7).
The maternal behaviour of untreated and treated mice was monitored by assaying mouse ability to build a nest and to retrieve pups. Experiments were performed at 3 concentrations of epothilone D (4 mg/kg/week, 3 mg/kg/week and 0.3 mg/kg/week).
Among 69 STO KO mice, […] were treated with placebo injections, 17 were treated with 3 mg/kg/week of epothilone, and 18 were treated with 0.3 mg/kg/week of epothilone. Among 34 WT mice, 17 were treated with placebo injections, and 17 were treated with 3 mg/kg/week of epothilone.
In another series of experiments, among 19 STOP KO mice, 9 were treated with placebo injections, 10 with 4 mg/kg/week epothilone D and as control, among 20 WT mice, 10 were treated with placebo injections and 10 with 4 mg/kg/week epothilone D.

WT mice [4] = assay: Maternal behaviour: nest building and pup retrieving, WT mice; conditions: example II
Procedure: as §6, §7, §8, §9, §10, §11
Finally a global score for nesting and retrieving capacity (TNR) was determined for each mouse, by adding the tissue use, nest building, and pup retrieving scores (maximal score for TNR is 7). […]

STOP KO mice [5] = assay: Pup survival in progeny of STOP KO mothers
Procedure: The epothilone treatment has been then tested whether it could induce pup survival in STOP KO mothers. Nine STOP KO mice treated with Epothilone D at 0.3 mg/kg/week and eight untreated females were mated the pups survival were analysed after delivery.

STOP KO mice [6] = assay: Synaptic vesicle density in CA1 hippocampal synapses (electron micrographs), STOP KO mice
Procedure: It reports the quantitative analysis of synaptic vesicle density in CA1 hippocampal synapses of mice treated or not with epothilone D 3 mg/kg/week or with neuroleptics (0.5 mg/kg/day haloperidol and 5 mg/kg/day chlorpromazine, in drinking water, from birth to adulthood). Synaptic vesicle density, calculated as the ratio of the number of vesicle/nerve terminal surface (after subtraction of the surface area occupied by mitochondria). Results (means+/−s.e.m.) are shown for pooled 75 measurements from five wild type mice and from five STOP KO mice either untreated or treated with Epothilone D. For neuroleptic control experiments, results (means+/−s.e.m.) are shown for pooled 75 measurements from three STOP KO mice either untreated or treated with neuroleptics.
Hippocampus was dissected out from transcardially fixed mice, sliced and embedded in Epon. To determine the surface density of synaptic vesicles, a total of cross sections of 75 synapses made of hippocampal CA1 region were photographed randomly, and the numbers of synaptic vesicles in each nerve pre-terminal were counted on the electron micrographs. Synaptic vesicles density of STOP KO mice following long term neuroleptic treatment (0.5 mg/kg/day haloperidol and 5 mg/kg/day chlorpromazine, in drinking water, from birth to adulthood) was also examined using the same protocol. […]

[7] = STOP deficient mice, 3 mg/kg/week i.p., FIG. 1-B
[8] = STOP deficient mice, 4 mg/kg/week, 8 weeks, FIG. 2
[9] = STOP KO mice, 0.3 mg/kg/week i.p., FIG. 3
[10] = STOP KO mice, 3 mg/kg/week i.p., FIG. 3
[11] = STOP deficient mice, 4 mg/kg/week, FIG. 4

## C/C1=C/CC(/C(C)=C/c2csc(C)n2)OC(=O)CC(O)C(C)(C)C(=O)C(C)C(O)C(C)CCC1 (stereo not shown) [epothilone D]
STOP deficient mice [1]; STOP KO mice, summary statement, dose not stated
  total number of shifts between activities: decrease
STOP deficient mice [1]; STOP deficient mice, 3 mg/kg/week i.p. once a week, at least 8 weeks, vs placebo, FIG. 1-A
  total time spent grooming: decrease
STOP deficient mice [1]; [7]
  number of remaining still while awake sequences: reducing
  number of walking sequences: reducing
STOP deficient mice [1]; STOP deficient mice, 3 mg/kg/week i.p., vs placebo, FIG. 1-A
  total time spent sleeping: increase
STOP deficient mice [1]; STOP deficient mice, 3 mg/kg/week i.p., vs placebo, FIG. 1-B
  total number of shifts between activities: decreased
STOP deficient mice [1]; STOP deficient mice, 4 mg/kg/week i.p. in two injections a week, 8 weeks, FIG. 2
  total number of shifts between activities: remarkable decrease
STOP deficient mice [1]; [8]
  number of feeding sequences: remained unaffected
  number of grooming sequences: decrease
  number of sleeping sequences: remained unaffected
  number of walking sequences: decrease
  total time spent grooming: highly significantly diminished
STOP deficient mice [1]; STOP deficient mice, 4 mg/kg/week, 8 weeks, trend (tended to increase), FIG. 2
  time spent sleeping: increase
STOP deficient mice [1]; STOP deficient mice, 4 mg/kg/week, 8 weeks, trend, FIG. 2
  time spent remaining still without sleeping: tended to diminish
WT mice [2]; 4 mg/kg/week, FIG. 2, said to be compatible with random fluctuations
  number of sequences of stillness: significant increase
WT mice [2]; example I (3 and 4 mg/kg/week)
  effect on the recorded activities: no significant effect
STOP deficient mice [3]; [9]
  TNR score (global score, maximal 7): highly significant increase
  nest building score (0-2): improved
  paper use score (tissue use score, 0-2): improved
  pup retrieving score (0-3): improved
STOP deficient mice [3]; [10]
  TNR score (global score, maximal 7): highly significant increase
  nest building score (0-2): improved
  paper use score (tissue use score, 0-2): improved
  pup retrieving score (0-3): improved
STOP deficient mice [3]; STOP KO mice, 4 mg/kg/week, rose from 1.16 without treatment, highly significant increase, FIG. 4
  TNR score (global score, maximal 7): 4.4
STOP deficient mice [3]; [11]
  nest building score (0-2): strongly improved
  paper use score (tissue use score, 0-2): strongly improved
  pup retrieving score: tended to improve
WT mice [4]
  effect on nurturing-related behaviours: no significant effect
STOP KO mice [5]; 0.3 mg/kg/week, nine treated STOP KO females mated, no pup survival without treatment
  STOP KO females with pup survival: three out of the nine
STOP KO mice [5]; 0.3 mg/kg/week, per mouse, the three STOP KO females with surviving pups
  ratio of surviving pups to newborns: 5/6 (2×) and 6/6
STOP KO mice [5]; STOP deficient female mice, summary statement, dose not stated
  maternal behaviour, compatible with pup survival: re-established
STOP KO mice [6]; CA1 hippocampal synapses, 4 mg/kg/week, p<0.001, FIG. 5
  increase of synaptic vesicle density relative to absence of treatment: 20%
STOP KO mice [6]; summary statement, dose not stated
  increase of synaptic vesicle density: about 20%
